This is an account of results in patent publication US6268381A, “Taxane derivatives” (Kabushiki Kaisha Yakult Honsha, priority 1997, dated 2001).

In brackets after ≈: the same amount, converted by molar mass.

In general, GI50 refers to the concentration giving 50% growth inhibition. Read a high GI50 as lower sensitivity of the cells. What is called solubility is the dissolved amount per volume that the medium holds.

The subject of one data set is KB cells. The data set is described as follows: Growth inhibitory activity against KB cells (Test 2, XTT assay). The conditions noted are these: for GI50: Homo sapiens, 72 h, 3 days culture; for Activity ratio: relative to Taxol (1.00). The data set is classed as cell-based, human. As to the method: Growth Inhibitory Activity of Taxane Derivatives (1)
As KB cells derived from a human mouth cancer, those purchased from Dainippon Pharmaceutical Co., Ltd. and stored in a lyophilized from at the Research Institute of that company was used. In Dulbecco's modified Eargle's medium containing 10% fetal bovine serum (product of NISSUI PHARMACEUTICAL CO., LTD.), the KB cells were cultured and maintained under the conditions of 5%, CO2 -ari and 37° C.
Each compound was used by dissolving it in DMSO at a concentration of 10 mg/mL.
On Day-1, cells which were in a logarithmic growth phase were inoculated at 2,000 cells/100 μl/well on 96-well microtiter plates (Falcon #3072) by using a phenol-red-free culture medium with 10% fetal bovine serum contained therein (Dulbecco's modified Eargle's medium (Sigma)), and were cultured overnight. On Day 0, the compounds each of which had been diluted to 0.03 to 10,000 ng/mL with the same culture medium were added in 100 μl aliquots to the individual wells, and the cells were cultured for 3 days. Three wells were used per each drug concentration. Each plate was provided with three blank wells containing only the culture medium and also with eight wells as a drug-untreated control.
Upon use, XTT (Sigma) was dissolved at a concentration of 1 mg/mL in each culture medium which was free of serum. Phenodin methosulfate (Sigma) dissolved at a concentration of 5 mM in PBS was added to the resulting solution at a volume ratio of 1/200. To each well, the solution so prepared was added in an amount of 50 μl per well. Subsequent to culture for 4 hours, OD was measured at 450 nm by ELISA.
Calculation of 50% Growth Inhibitory Concentration (GI50)
GI50 was calculated by interpolation from a concentration-growth inhibition rate (GIR) curve. GIR was determined in accordance with the following formula: [formula]
(In general: Formazan colour is commonly taken as a measure of viable cells.)

Data set [1] in a line: Solubility test of water-soluble taxane derivatives (Test 1, HPLC). The data set is classed as physicochemical. Particulars: purified water + 1.05 eq. 0.1N hydrochloric acid, shaken 2 hours at room temperature. As to the method: Solubilities of Novel Water-soluble Taxane Derivatives
I) Preparation of a calibration curve
Compound (1-4) was weighed in an amount of 2.3 mg, to which 2.3 mL of acetonitrile was added so that the compound was dissolved to provide a standard solution. Using a 10 μL portion of the standard solution, the test was conducted by HPLC (operation conditions 1). The peak area of Compound (1-4), which had been obtained from the chromatogram of the standard solution, was measured by automated integration. The peak area obtained as an average of three measurements was plotted against the amount (10 μg) of Compound (1-4) per 10 μL, whereby a calibration curve was prepared.
Calibration curve of Compound (1-4): Y =1.518 ×10^-5 X [X: peak area, Y: amount (μg) of Compound (1-4)] [HPLC operation conditions 1] Column: Inertsil ODS-2 (5-250), 40 deg. Mobile phase: 0.01M KH2 PO4 --CH3 CN (3:2). Flow rate: 1.0 mL/min. Detection: Ultraviolet absorption photometer (225 nm), 0.2 AUFS.
II) Solubility test of Compound (1-4):
Compound (1-4) was weighed in an amount of 3.7 mg and then suspended in 2.0 mL of purified water. To the resulting suspension, 41.3 μL (1.05 eq.) of 0.1N hydrochloric acid was added. […] From the area obtained as an average of three measurements, the solubility of the compound (1-4) was determined. […]

The subject of another data set is breast cancer. Particulars: Ann. int. Med. 111, 273, 1989; cited from earlier work.
Another data set deals with ovarian cancer. The conditions noted are these: Ann. int. Med. 111, 273, 1989; cited from earlier work.

Take `CCCN(CCC)C1CCN(C(=O)O[C@H]2C(=O)[C@@]3(C)[C@H]([C@H](OC(=O)c4ccccc4)[C@]4(O)C[C@H](OC(=O)[C@H](O)[C@@H](NC(=O)OC(C)(C)C)c5ccco5)C(C)=C2C4(C)C)[C@]2(OC(C)=O)CO[C@@H]2C[C@@H]3O)CC1` [Compound 1-3, 13-0-[3-(tert-Butoxycarbonylamino)-3-(2-furyl)-2-hydroxypropionyl]-10-0-(4-dipropylaminopiperidinocarbonyl)-10-deacetylbaccatin III]: in the data set with KB cells, the 50% growth inhibitory concentration (GI50) came out at 0.43 ng/mL (≈ 0.427 nM) and the Activity ratio is 3.02.
For the molecule `CC(=O)O[C@@]12CO[C@@H]1C[C@H](O)[C@@]1(C)C(=O)[C@H](OC(=O)N3CCC(N4CCCCC4)CC3)C3=C(C)[C@@H](OC(=O)[C@H](O)[C@@H](NC(=O)OC(C)(C)C)c4ccoc4)C[C@@](O)([C@@H](OC(=O)c4ccccc4)[C@H]21)C3(C)C` [Compound 1-1, 13-0-[3-(tert-Butoxycarbonylamino)-3-(3-furyl)-2-hydroxypropionyl]-10-0-(4-piperidinopiperidinocarbonyl)-10-deacetylbaccatin III], in the data set with KB cells, halving of growth (GI50) required 0.48 ng/mL (≈ 0.484 nM) and the Activity ratio is recorded as 2.70.
Consider `CCN1CCN(C(=O)O[C@H]2C(=O)[C@@]3(C)[C@H]([C@H](OC(=O)c4ccccc4)[C@]4(O)C[C@H](OC(=O)[C@H](O)[C@@H](NC(=O)OC(C)(C)C)c5ccco5)C(C)=C2C4(C)C)[C@]2(OC(C)=O)CO[C@@H]2C[C@@H]3O)CC1` [Compound 1-4, 13-0-[3-(tert-Butoxycarbonylamino)-3-(2-furyl)-2-hydroxypropionyl]-10-0-(4-ethylpipezinocarbonyl)-10-deacetylbaccatin III], for which the Amount dissolved in data set [1] (average of three measurements) came to 7.87 μg/5 μL. The solubility at 2 h in data set [1] (water + 0.1n hcl) came to 1570 µg/mL. Further, in the data set with KB cells, the GI50 turned out to be 0.23 ng/mL (≈ 0.245 nM) and the Activity ratio is reported as 5.65.
As to `CC(=O)O[C@@]12CO[C@@H]1C[C@H](O)[C@@]1(C)C(=O)[C@H](OC(=O)N3CCN(C)CC3)C3=C(C)[C@@H](OC(=O)[C@H](O)[C@@H](NC(=O)OC(C)(C)C)c4ccoc4)C[C@@](O)([C@@H](OC(=O)c4ccccc4)[C@H]21)C3(C)C` [Compound 1-2], in the data set with KB cells, the GI50 worked out at 0.28 ng/mL (≈ 0.303 nM) and the Activity ratio worked out at 4.64.
Regarding `CC(=O)O[C@H]1C(=O)[C@@]2(C)[C@H]([C@H](OC(=O)c3ccccc3)[C@]3(O)C[C@H](OC(=O)[C@H](O)[C@@H](NC(=O)c4ccccc4)c4ccccc4)C(C)=C1C3(C)C)[C@]1(OC(C)=O)CO[C@@H]1C[C@@H]2O` [Taxol], the “Efficacy against breast cancer” value in the data set on breast cancer is on record as “high efficacy”. Moreover, in the data set with ovarian cancer, the “Efficacy against ovarian cancer” value is on record as “high efficacy”. This molecule gave a GI50 with KB cells of 1.3 ng/mL (≈ 1.52 nM).
